Experimental findings from US20230313305A1, “METHODS AND USES OF INFLAMMATORY BOWEL DISEASE BIOMARKERS” (Washington University, priority 2017, published 2023) are described below.

Experiment [1] concerns primary intestinal epithelial cells. The experiment is described as follows: IL-17A added to primary cultured intestinal epithelial cells (microarray, qPCR). In kind it is cell-based, mouse. The following applies: 20 ng/ml IL-17A. From the text:
Despite the important role of IL-17 in autoimmunity and inflammatory bowel disease (IBD) its function in the mucosa in disease is still unclear. In IBD, IL-17 is produced in part by mucosal pro-inflammatory Th17 cells. […] To investigate this possibility, we treated primary cultured intestinal epithelial cells with IL-17 and conducted transcriptomic analysis. […] This process was inhibited by PAI-1. […] This study identifies a new pathway in UC where dysregulated PAI-1 leads to exacerbated inflammation and disease activity by blocking an IL-17-tPA-TGF-β axis.
From colon epithelial lines n=4; Stem cells; Stem cells (2 days); DM; Colonocytes; With and without 20 ng/ml IL-17A.
We sought a marker of intestinal inflammation in IBD that is downstream of multiple inflammatory pathways. We first performed RNA microarray analysis on primary mouse intestinal epithelial cells treated these cells with IL-17 (a known important inflammatory cytokine in IBD). We cross-referenced a list of 23 molecules with enhanced mRNA production in these cells grown multiple states to lists of molecules with enhanced expression in IBD colon biopsies. We identified that the Plat/Serpine1 pathway was enriched. […]

A further experiment has as its system colon spheroids. The experiment is described as follows: TGFβ on colon spheroids, serpine1/PAI-1 expression. Type of experiment: cell-based. The following applies: colon spheroids (FIG. 25). From the text: FIG. 25. TGFβ drives serpine1/PAI-1 expression in the colon spheroids (negative feedback loop)

With “IL-17: inflammatory cytokine added to primary intestinal epithelial cells”, the “production of tissue plasminogen activator (tPA) by epithelial cells” value in experiment [1] is given as “induced”. On to TGFβ, for which the serpine1/PAI-1 expression result in the experiment with colon spheroids is reported as “drives”.
